Test results reported in paper PMC5799093, “Proceedings of Réanimation 2018, the French Intensive Care Society International Congress” (Annals of Intensive Care, 2018).
Where two headings read alike, the source gives them in different places.

Key:
[1] = tested on: carbapenemase-producing Enterobacteriaceae; assay: Antibiotic susceptibility of Enterobacteriaceae with decreased susceptibility to carbapenems; assay type: cell-based; conditions: 39 selected bacteria
Pseudomonas [2] = conditions: January 2010 - June 2014
Escherichia-coli = assay: Resistance in nosocomial urinary tract infection: Escherichia-coli (P-219); conditions: January 2010 - June 2014
[3] = Beta-lactam plasma concentrations in children with severe sepsis or septic shock (HPLC); conditions: current standard dosing
Acinetobacter baumannii [4] = assay type: cell-based; conditions: blood culture isolates 2012–2016
Procedure: (§1) Patients and methods: From January 2012 to December 2016, a total of 2,182 non repetitive strains were isolated from blood cultures. Incubation of blood culture vials and the detection of bacterial growth were performed by the BACTEC system. All Isolated organisms were identified on the basis of standard microbiological techniques. Antibiotic susceptibility testing was carried out by the agar disk diffusion method, and susceptibility results were interpreted using clinical breakpoints according to CA-SFM 2013 and 2015 guidelines. Data were analyzed using the SIR-system. Minimum inhibitory concentrations of colistin, imipenem and vancomycin were determined using the Etest® method (bioMérieux).

Pseudomonas aeruginosa [5] = assay: Disk diffusion susceptibility of P. aeruginosa isolated from burned patients (P-48); assay type: cell-based; conditions: 485 strains from burned patients 2012-2015, disk diffusion, FSM breakpoints
acintobacter baumanii = assay: Resistance of VAP isolates: baumanii (P-224); assay type: cell-based; conditions: 2014-2015
Source text: (§2) Patients and methods: Retrospective study spread over 2 years from January 2014 to December 2015 carried out in the resuscitation unit of the medical and surgical emergency department of CHUOran. Data utilization with Whonet software. The criteria of vap retained are those of CTINILS (May 2007).

Pseudomonas aeruginosa [6] = tested on: Pseudomonas aeruginosa
Acinetobacter Baumanii = assay: Resistance of nosocomial infection isolates: Acinetobacter Baumanii (P-222); assay type: cell-based; conditions: n = 39 isolates, 2016
Source text: (§3) Patients and methods: This was a retrospective study conducted within a 22-bed medical ICU of a Tunisian teaching hospital (301 beds) carried from January 1st to December 31, 2016. We recorded demographic patients’ characteristics which ICU’s stay was complicated with at least one NI. Then we described pathogens and microbiological specificities of NI.

[7] = tested on: Extended spectrum betalactamase producing Enterobacteriaceae; assay: Antibiotic resistance of ESBL producing Enterobacteriaceae (P-147); assay type: cell-based; conditions: isolates 2015 and 2016
[8] = tested on: Pseudomonas aeruginosa (PA); assay: Antibiotic resistance of Pseudomonas aeruginosa before/after antibiotic stewardship (P-214); assay type: cell-based
Acinetobacter baumannii [9] = conditions: January 2010 - June 2014
Pseudomonas [10] = assay: Resistance of VAP isolates: pseudomonas (P-224); assay type: cell-based; conditions: 2014-2015
Source text: as §2

Staphylococcus aureus [11] = assay type: cell-based; conditions: blood culture isolates 2012–2016
Procedure: as §1

Staphylococcus aureus [12] = assay: Resistance in nosocomial urinary tract infection: Staphylococcus aureus (P-219); conditions: January 2010 - June 2014
[13] = tested on: coagulase negative Staphylococcus; assay: Resistance of nosocomial infection isolates: coagulase negative Staphylococcus (P-222); assay type: cell-based; conditions: n = 12 isolates, 2016
Source text: as §3

Structure (SMILES) | strains with MIC > 8 mg l [1] [%] | resistant (Pseudomonas [2]) [%] | resistant (Escherichia-coli) [%] | patients with insufficient plasma concentration [3] [%] | resistance rate (Acinetobacter baumannii [4]) [%] | strains resistant (Pseudomonas aeruginosa [5]) [%] | resistant (acintobacter baumanii) [%] | resistance rate (Klebsiella pneumoniae) [%] | resistance rate (Pseudomonas aeruginosa [6]) [%] | resistance (Acinetobacter Baumanii) [%] | rate of resistance [7] [%] | antibiotic resistance of PA ([8]; period 2007–2010 (P1)) [%] | antibiotic resistance of PA ([8]; period 2011–2014 (P2), after antibiotic stewardship, p < 0.01) [%] | resistant (Acinetobacter baumannii [9]) [%] | resistant (Pseudomonas [10]) [%] | resistance rate (Staphylococcus aureus [11]) [%] | resistant (Staphylococcus aureus [12]) [%] | resistant [13] [%]
C[C@@H](O)[C@H]1C(=O)N2C(C(=O)O)=C(SCCN=CN)C[C@H]12 [imipenem] | 30 | 64 | 8 | 0 | 94 | 56 | 55 | 15 | 72 | 100 | 2.17 | 38 | 18 | 87 | 18.4 | – | – | –
COc1cccc(OC)c1C(=O)N[C@@H]1C(=O)N2[C@@H]1SC(C)(C)[C@@H]2C(=O)O [methicillin] | – | – | – | – | – | – | – | – | – | – | – | – | – | – | – | 70 | 25 | 75
